# Values joined by “and” are separate entries in the source; they are usually repeats but may differ in a detail not shown here. Equal values may be shown once. Records with an inconclusive call do not appear. Active and inactive are the calls of the source. How the calls were made is not given here.
# System: C. albicans growth with fluconazole, fluorescence
# Experiment: fluconazole-exposed Candida albicans growth modulators – fluorescence, retest, confirmation (AID 2467)
row,SMILES,EC50
1,NC(=NCCCCCCN=C(N)/N=C(\N)Nc1ccc(Cl)cc1)/N=C(\N)Nc1ccc(Cl)cc1,635 nM and 308 nM and 649 nM
2,c1cnc2c(c1)ccc1cccnc12,> 3800 nM (inactive)
